Data reported in US10624905B2, “Corticosteroids for the treatment of joint pain” (Flexion Therapeutics, Inc., priority 2013, dated 2020).
≈ marks a conversion by molar mass, not a printed value. Where “and” joins values, the source holds several entries; their conditions need not be identical. Identical values can stand only once. Like-named read-outs stand apart in the source and are kept apart here.

What was measured:
[1] = system: endogenous cortisol production; assay: Steady-state doses and plasma concentrations for target suppression of endogenous cortisol production; set-up: species or system human; settings: steady-state HPA axis suppression
Experimental: In this regard, it has been determined that standard doses of familiar corticosteroids, when examined from the viewpoint of steady-state HPA axis suppression (i.e., after desensitization has occurred), provide clinically useful benchmarks. For example, while oral prednisolone given at 20 mg QD produces a 73% cortisol suppression, even 5 mg QD (considered a “low dose”) is associated with a 40% suppression of endogenous cortisol production. […]
As a result of these clinical findings, the dose range to achieve clinically useful analgesia, with minimal or controlled modulation of the HPA axis, at steady state concentrations of various corticosteroids has been determined (Table 2). […]
In addition, with these continuous daily doses of intra-articular corticosteroids, it is possible to determine the related systemic plasma level concentrations (Table 3) that will produce the target cortisol inhibition and not beyond, this while retaining clinically important anti-inflammatory and analgesic activity within the joint. […] The levels calculated in Table 3 were purely hypothetical calculations based on human data with immediate release-level doses from the literature. […] A given level of plasma concentration may actually provide less inhibition that would have been predicted or calculated using the human IR levels from the literature. […]

[2] = system: HPA axis (corticosterone levels); assay: Inhibition of the HPA axis (corticosterone levels) in rats, PK-PD analysis; assay type: in vivo; settings: rat, PK-PD inhibitory model
[3] = system: rat model of osteoarthritis of the knee (PGPS); assay: Rat PGPS model of osteoarthritis of the knee: histopathology of the knees; assay type: in vivo; settings: inflammatory milieu
Experimental: Efficacy of single intra-articular (IA) doses of FX006 (TCA in 75:25 PLGA formulation microparticles) and TCA IR (immediate release) was evaluated in a rat model of osteoarthritis of the knee via sensitization and challenge by peptidoglycan polysaccharide (PGPS). The model involves priming the animals with an intra-articular injection of PGPS in the right knee. The following day, any animals with no knee discomfort were eliminated from the test article groups and placed into the baseline group. Two weeks later, knee inflammation was reactivated by a tail vein injection of PGPS, 2.5 hr following IA dosing with FX006 or TCA IR at the doses selected (n=10/group). Differences in weight-bearing and gait (as a measure of joint pain experienced by the animals), histopathology, plasma PK etc. were evaluated.

[4] = cited from earlier work
HPA axis = settings: 20 mg intra-articular injection; day 3; transient; cited from earlier work
[5] = TCA in rat plasma, i.v. 50 mg/kg bolus + 23 mg/kg/h infusion, cited from earlier work

With `C[C@]12C=CC(=O)C=C1CC[C@@H]1[C@@H]2[C@@H](O)C[C@@]2(C)[C@H]1CC[C@]2(O)C(=O)CO` [prednisolone, 11β,17,21-trihydroxypregna-1,4-diene-3,20-dione] the “suppression of endogenous cortisol production” value ([1]; oral 5 mg QD) was 40% and the cortisol suppression ([1]; oral 20 mg QD) was 73%.
In the case of `CC1(C)O[C@@H]2C[C@H]3[C@@H]4CCC5=CC(=O)C=C[C@]5(C)[C@@]4(F)[C@@H](O)C[C@]3(C)[C@]2(C(=O)CO)O1` [triamcinolone acetonide, 9α-Fluoro-11β,16α,17α,21-tetrahydroxy-1,4-pregnadiene-3,20-dione 16,17-acetonide], the “systemic TCA level at which Emax of corticosterone inhibition was achieved” value [2] is reported as 50 to 80 ng/mL, the IC50 ([2]; read-out: IC50 of corticosterone inhibition versus systemic TCA levels) is reported as ~1 ng/mL (≈ 2.3 nM) and the effect on cartilage [3] is reported as “no deleterious effect on cartilage”. The “contribution of the immediate release component to the plasma concentration” value ([4]; 40 mg immediate release, intra-articular, by day 12) was “less than 0.1 ng/ml” and the peak plasma concentration ([4]; 40 mg immediate release, intra-articular, day 1) was “approximately 10 ng/ml”.
In the case of `CC(C)(C)CC(=O)OCC(=O)[C@@]12OC(C)(C)O[C@@H]1C[C@H]1[C@@H]3CCC4=CC(=O)C=C[C@]4(C)[C@@]3(F)[C@@H](O)C[C@@]12C` [triamcinolone hexacetonide], the HPA-axis suppression (HPA axis) is listed as 75% and the plasma levels ([4]; 20 mg intra-articular injection, day 3) is listed as 3 to 4 ng/mL.
In the case of Triamcinolone Acetonide Phosphate, the CL ([5]; Mean ± SD) is listed as 15.6 ± 3.13 mL/min/kg, the T1/2β ([5]; Mean ± SD) is listed as 2.71 ± 1.09 h and the Vc ([5]; Mean ± SD) is listed as 0.944 ± 0.314 L/kg. The fu ([5]; Mean ± SD) was 0.093 ± 0.015, the k21 ([5]; Mean ± SD) was 0.937 ± 0.261 h^1 and the CL ([5]; individual rats 1-3) was 19.2 mL/min/kg and 13.2 mL/min/kg and 14.5 mL/min/kg. For the same molecule, the T1/2β ([5]; individual rats 1-3) was 1.55 h and 3.71 h and 2.87 h, the Vc ([5]; individual rats 1-3) was 0.684 L/kg and 0.856 L/kg and 1.29 L/kg and the fu ([5]; individual rats 1-3) was 0.084 and 0.110 and 0.085. The k12 ([5]; individual rats 1-3) was 1.64 h^1 and 1.79 h^1 and 1.59 h^1 and the k21 ([5]; individual rats 1-3) was 1.04 h^1 and 0.640 h^1 and 1.13 h^1.
